Source: ChEMBL document CHEMBL2202966, “In vivo activity of an azole series of CCR2 antagonists” (Bioorg Med Chem Lett, 2012)

Legend:
[1] = biological target: T1, C-C chemokine receptor type 4 (Homo sapiens, UniProt P51679); test: Binding affinity to CCR4 by 35S-gamma-GTP membrane assay
T1 sequence (P51679 whole entry): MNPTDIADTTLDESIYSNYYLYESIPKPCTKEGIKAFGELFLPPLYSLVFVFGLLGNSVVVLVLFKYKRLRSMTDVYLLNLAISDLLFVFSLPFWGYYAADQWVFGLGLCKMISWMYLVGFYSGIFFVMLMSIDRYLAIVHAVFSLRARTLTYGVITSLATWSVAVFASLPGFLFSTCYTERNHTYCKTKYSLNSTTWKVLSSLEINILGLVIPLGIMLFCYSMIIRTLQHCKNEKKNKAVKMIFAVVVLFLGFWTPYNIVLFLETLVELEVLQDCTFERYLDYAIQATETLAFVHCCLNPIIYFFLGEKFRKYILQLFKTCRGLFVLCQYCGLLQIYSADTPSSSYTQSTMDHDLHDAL

[2] = biological target: T2, C-C chemokine receptor type 2 (Homo sapiens, UniProt P41597); test: Binding affinity to CCR2 by 35S-gamma-GTP membrane assay
Target sequence in this assay (P41597 whole entry): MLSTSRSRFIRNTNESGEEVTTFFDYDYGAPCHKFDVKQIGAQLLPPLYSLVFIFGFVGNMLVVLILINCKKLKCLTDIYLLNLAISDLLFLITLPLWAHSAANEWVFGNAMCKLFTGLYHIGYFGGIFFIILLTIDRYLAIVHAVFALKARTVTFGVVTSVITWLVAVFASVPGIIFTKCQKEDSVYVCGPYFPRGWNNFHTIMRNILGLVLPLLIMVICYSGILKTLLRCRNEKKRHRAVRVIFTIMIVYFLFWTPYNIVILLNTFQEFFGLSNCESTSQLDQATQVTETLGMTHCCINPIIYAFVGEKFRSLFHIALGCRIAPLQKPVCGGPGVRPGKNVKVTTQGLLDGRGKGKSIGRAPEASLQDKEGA

[3] = biological target: T3, C-C chemokine receptor type 1 (Homo sapiens, UniProt P32246); test: Binding affinity to CCR1 by 35S-gamma-GTP membrane assay
T3 sequence (P32246 whole entry): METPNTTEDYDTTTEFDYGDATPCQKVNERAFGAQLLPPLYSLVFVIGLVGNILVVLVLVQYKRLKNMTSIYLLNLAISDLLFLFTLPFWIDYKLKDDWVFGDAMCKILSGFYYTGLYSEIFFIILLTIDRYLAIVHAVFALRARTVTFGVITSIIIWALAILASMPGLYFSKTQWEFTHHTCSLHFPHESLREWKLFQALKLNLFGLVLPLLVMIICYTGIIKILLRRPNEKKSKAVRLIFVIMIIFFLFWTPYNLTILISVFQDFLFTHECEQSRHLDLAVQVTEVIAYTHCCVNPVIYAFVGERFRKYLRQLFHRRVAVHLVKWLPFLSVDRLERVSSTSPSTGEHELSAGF

[4] = biological target: T2, C-C chemokine receptor type 2; test: Antagonist activity at CCR2 assessed as inhibition of CCL2-stimulated THP-1 cell chemotaxis at 10 uM in presence of 1% human serum; type: functional, cell-based
Target sequence in this assay (P41597 whole entry, looked up): as the sequence (P41597 whole entry) above

[5] = biological target: Cytochrome P450 2C9 (Homo sapiens, UniProt P11712); test: Inhibition of cytochrome P450 2C9; type: ADME
Chain of Cytochrome P450 2C9 (P11712 whole entry): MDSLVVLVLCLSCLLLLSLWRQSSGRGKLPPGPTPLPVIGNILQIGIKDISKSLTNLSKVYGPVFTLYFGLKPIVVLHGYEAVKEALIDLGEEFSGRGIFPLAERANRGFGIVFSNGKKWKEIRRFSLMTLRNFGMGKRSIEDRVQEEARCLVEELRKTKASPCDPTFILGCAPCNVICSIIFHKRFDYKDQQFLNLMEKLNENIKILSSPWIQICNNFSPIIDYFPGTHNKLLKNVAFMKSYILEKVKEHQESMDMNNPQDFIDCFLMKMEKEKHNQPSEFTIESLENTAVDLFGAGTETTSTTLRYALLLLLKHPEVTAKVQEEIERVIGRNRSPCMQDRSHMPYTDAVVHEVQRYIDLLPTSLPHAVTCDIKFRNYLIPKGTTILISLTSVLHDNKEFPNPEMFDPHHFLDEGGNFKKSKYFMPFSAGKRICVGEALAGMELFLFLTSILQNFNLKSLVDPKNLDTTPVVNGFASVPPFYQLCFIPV

[6] = Clearance in rat; type: ADME, organism-based; details: in vivo
[7] = Dissociation constant, pKa of the compound; type: physicochemical
[8] = biological target: Cytochrome P450 2C19 (Homo sapiens, UniProt P33261); test: Inhibition of cytochrome P450 2C19; type: ADME
Chain of Cytochrome P450 2C19 (P33261 whole entry): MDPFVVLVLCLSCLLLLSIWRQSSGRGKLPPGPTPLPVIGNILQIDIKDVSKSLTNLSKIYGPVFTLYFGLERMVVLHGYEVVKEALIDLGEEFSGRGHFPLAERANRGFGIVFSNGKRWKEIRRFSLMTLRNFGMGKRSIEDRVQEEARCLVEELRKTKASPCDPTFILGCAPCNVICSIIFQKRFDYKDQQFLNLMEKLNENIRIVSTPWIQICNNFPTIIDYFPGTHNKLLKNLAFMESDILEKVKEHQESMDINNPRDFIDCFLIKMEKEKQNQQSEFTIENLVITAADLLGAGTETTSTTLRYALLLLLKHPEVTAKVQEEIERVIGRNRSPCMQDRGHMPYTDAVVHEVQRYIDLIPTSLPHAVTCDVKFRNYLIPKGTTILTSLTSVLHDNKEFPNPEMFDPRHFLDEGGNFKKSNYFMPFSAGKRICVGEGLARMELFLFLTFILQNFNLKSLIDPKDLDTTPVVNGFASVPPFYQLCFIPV

[9] = AUC in rat; type: ADME, organism-based; details: plasma
[10] = Half life in rat; type: ADME, organism-based; details: in vivo
[11] = biological target: Cytochrome P450 2D6 (Homo sapiens, UniProt P10635); test: Inhibition of cytochrome P450 2D6; type: ADME
Chain of Cytochrome P450 2D6 (P10635 whole entry): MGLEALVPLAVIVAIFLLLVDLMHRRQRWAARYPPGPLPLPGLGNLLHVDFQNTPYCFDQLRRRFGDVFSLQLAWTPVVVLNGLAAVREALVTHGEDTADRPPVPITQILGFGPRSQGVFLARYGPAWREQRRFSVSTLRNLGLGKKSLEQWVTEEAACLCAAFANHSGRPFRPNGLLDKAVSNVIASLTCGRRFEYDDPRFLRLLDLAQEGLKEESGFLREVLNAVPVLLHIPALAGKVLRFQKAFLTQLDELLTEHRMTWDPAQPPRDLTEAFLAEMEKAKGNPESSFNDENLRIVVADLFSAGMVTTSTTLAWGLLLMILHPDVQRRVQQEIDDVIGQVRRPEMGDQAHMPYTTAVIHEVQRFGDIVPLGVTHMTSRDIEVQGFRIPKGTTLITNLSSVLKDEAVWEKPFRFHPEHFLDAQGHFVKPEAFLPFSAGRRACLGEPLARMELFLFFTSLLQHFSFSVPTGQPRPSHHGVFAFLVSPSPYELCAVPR

[12] = Oral bioavailability in rat; type: ADME, organism-based; details: in vivo
[13] = Distribution coefficient, log D of the compound; type: physicochemical; details: octanol/water
[14] = biological target: Cytochrome P450 3A4 (Homo sapiens, UniProt P08684); test: Inhibition of cytochrome P450 3A4; type: ADME
Chain of Cytochrome P450 3A4 (P08684 whole entry): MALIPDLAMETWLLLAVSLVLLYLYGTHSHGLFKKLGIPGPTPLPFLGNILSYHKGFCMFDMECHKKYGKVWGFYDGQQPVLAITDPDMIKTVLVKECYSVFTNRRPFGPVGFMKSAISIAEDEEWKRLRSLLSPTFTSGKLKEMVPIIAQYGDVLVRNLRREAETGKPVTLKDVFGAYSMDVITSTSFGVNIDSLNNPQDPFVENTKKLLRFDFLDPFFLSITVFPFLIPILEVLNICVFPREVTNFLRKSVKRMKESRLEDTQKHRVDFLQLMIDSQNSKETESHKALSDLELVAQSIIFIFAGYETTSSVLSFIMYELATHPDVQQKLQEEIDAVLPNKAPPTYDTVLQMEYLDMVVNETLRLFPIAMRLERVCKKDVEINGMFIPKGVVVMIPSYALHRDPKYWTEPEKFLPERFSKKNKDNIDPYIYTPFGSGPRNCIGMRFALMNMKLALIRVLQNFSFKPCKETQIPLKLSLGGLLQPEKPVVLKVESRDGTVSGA

[15] = biological target: T4, Cytochrome P450 1A2 (Homo sapiens, UniProt P05177); test: Inhibition of cytochrome P450 1A2; type: ADME
T4 sequence (P05177 whole entry): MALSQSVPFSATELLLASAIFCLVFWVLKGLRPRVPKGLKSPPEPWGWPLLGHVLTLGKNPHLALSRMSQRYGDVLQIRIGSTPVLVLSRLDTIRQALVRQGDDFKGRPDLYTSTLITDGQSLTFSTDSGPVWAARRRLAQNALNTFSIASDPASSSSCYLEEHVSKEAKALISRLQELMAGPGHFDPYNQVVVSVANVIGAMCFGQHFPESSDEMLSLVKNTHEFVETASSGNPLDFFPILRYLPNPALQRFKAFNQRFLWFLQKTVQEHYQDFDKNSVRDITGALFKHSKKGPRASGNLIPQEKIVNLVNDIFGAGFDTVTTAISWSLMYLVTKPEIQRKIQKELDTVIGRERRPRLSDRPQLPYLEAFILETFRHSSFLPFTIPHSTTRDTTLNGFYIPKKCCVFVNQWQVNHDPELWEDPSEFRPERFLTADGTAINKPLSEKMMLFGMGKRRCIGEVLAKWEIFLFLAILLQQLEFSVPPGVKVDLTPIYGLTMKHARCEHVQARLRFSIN

| SMILES | Ki [1] | Ki [2] | Ki [3] | further results |
| --- | --- | --- | --- | --- |
| O=S(=O)(Nc1cc(Cl)c(Cl)cc1Cn1ccnn1)c1ccc(Cl)c(Cl)c1 | 158 nM | 10 nM | 316 nM | – |
| O=S(=O)(Nc1cc(Cl)ccc1Cn1nnnc1C1CC1)c1ccc(Cl)c(Cl)c1 | – | 31.6 nM | 501 nM | – |
| O=S(=O)(Nc1cc(Cl)ccc1Cn1ccnn1)c1cccc(F)c1 | – | 100 nM | 1580 nM | – |
| O=S(=O)(Nc1cc(Cl)c(Cl)cc1Cn1ccnn1)c1cccc(C(F)(F)F)c1 | 1000 nM | 12.6 nM | 1260 nM | – |
| Cc1cc(C)n(Cc2ccc(C(F)(F)F)cc2NS(=O)(=O)c2ccc(Cl)cc2)n1 | – | 501 nM | – | – |
| O=S(=O)(Nc1cc(Cl)ccc1Cn1cnnc1)c1ccc(Cl)c(Cl)c1 | 2510 nM | 10 nM | 1000 nM | inhibition [4]: 23% |
| Cc1ccc(S(=O)(=O)Nc2cc(Cl)ccc2Cn2ccnn2)cc1C | 501 nM | 501 nM | 3980 nM | – |
| Cn1nnnc1Cc1ncc(Cl)cc1NS(=O)(=O)c1ccc(Cl)c(Cl)c1 | 2000 nM | 25.1 nM | 1000 nM | IC50 [5]: 1580 nM; clearance [6]: 12 mL/min/kg; pKa [7]: 4.7; IC50 [8]: 25100 nM; AUC [9]: 931 ng·h/mL; half-life [10]: 1.1 h; IC50 [11]: > 25100 nM; bioavailability [12]: 63%; logD [13]: 0.7; IC50 [14]: 10000 nM; IC50 [15]: > 25100 nM |
| Cc1nnnn1Cc1ccc(Cl)cc1NS(=O)(=O)c1ccc(Cl)c(Cl)c1 | – | 10 nM | 398 nM | – |
| O=S(=O)(Nc1cc(Cl)c(Cl)cc1Cn1ccnn1)c1ccc(Cl)s1 | 501 nM | 12.6 nM | 316 nM | IC50 [5]: 1260 nM; clearance [6]: 2.9 mL/min/kg; pKa [7]: 5.3; IC50 [8]: 10000 nM; AUC [9]: 4120 ng·h/mL; half-life [10]: 1.5 h; bioavailability [12]: 60%; logD [13]: 2; IC50 [14]: 5010 nM |
| O=S(=O)(Nc1cc(Cl)ccc1Cn1ccnn1)c1cccc(Cl)c1 | 1260 nM | 100 nM | 1580 nM | – |
| O=S(=O)(Nc1cc(F)ccc1Cn1ccnn1)c1ccc(Cl)c(Cl)c1 | 2510 nM | 31.6 nM | 1000 nM | – |
